Laboratory results published in patent US20100234381A1, “BIOMARKERS AND METHODS FOR DETERMINING SENSITIVITY TO VASCULAR ENDOTHELIAL GROWTH FACTOR RECEPTOR-2 MODULATORS” (Bristol-Myers Squibb Company, priority 2007, published 2010).

Key:
[1] = test system: FGF2-stimulated cancer cell lines; test: FGF2-stimulated tumor cell proliferation, panel of cancer cell lines; assay type: cell-based; conditions: panel of 16 cell lines; FGF2 2.5 ng/ml; read-out: IC50, FGF2-induced tumor cell proliferation in vitro
Experimental: […], GEO, L2987, 786-0, A549, A498, Du145, PANC-1, ACHN, HT1197, CALU6, SKOV3, 769-[…], HCT166 and UMUC3. […] Gene expression profiling was performed on RNA samples from tumor cell lines using AFFYMETRIX® GeneChip System.

[2] = test system: FGF2 growth factor gene expression; test: FGF2 gene expression, AFFYMETRIX human arrays
[3] = test system: A2780 ovarian cancer cells; test: FGF2-induced proliferation of A2780 ovarian cancer cells (modified MTS assay); assay type: cell-based; conditions: A2780 ovarian cancer cells
Experimental: (§1) Cell proliferation was determined by a modified MTS assay with […] 96® Aqueous One Solution Reagent (Promega, Madison, Wis.). A2780 ovarian cancer cells, MIAPAC-2 pancreatic cancer cells, or GEO colon cancer cells were seeded on 96-well flat-bottomed tissue culture plates (Becton Dickinson, San Jose, Calif.) at a concentration of 3×10^3 cells/well in RPMI 1640 with 1% fetal bovine serum at 37° C. in 5% carbon dioxide/95% air in the presence of 100 units/ml penicillin, 100 μg/ml streptomycin and allowed to adhere to the plate overnight. Then the cells were incubated in the presence of each concentration of 0 (control), 0.3, 0.6, 1.25, 2.5, 5, 10 ng/ml of FGF2 or VEGF for another 72 hours at 37° C. in a humidified atmosphere of 5% CO2 in air. After treatment, 20 μl of […] 96® Aqueous One Solution Reagent was dropped into each well of plates. After 180 minutes incubation, the optical densities (OD) of these samples were directly measured using SPECTRAMAX® plus (Molecular Device, California) and reference wavelength of 490 nm. The OD of control samples was regarded as 100. Each condition was performed with 4 wells and experiment was repeated twice.

[4] = test system: MIAPAC-2 pancreatic cancer cells; test: FGF2-induced proliferation of MIAPAC-2 pancreatic cancer cells (modified MTS assay); assay type: cell-based; conditions: MIAPAC-2 pancreatic cancer cells
Experimental: as §1

[5] = test system: ovarian cancer cell line A2870; test: VEGF-induced proliferation of ovarian cancer cell line A2870; assay type: cell-based; conditions: data not shown
Experimental: as §1

[6] = test system: pancreatic cancer cell line MIAPAC-2; test: VEGF-induced proliferation of pancreatic cancer cell line MIAPAC-2; assay type: cell-based; conditions: data not shown
Experimental: as §1

VEGF gene expression = test: VEGF gene expression, AFFYMETRIX human arrays

Molecule | IC50 [1] [µM] | modulation of FGF2 growth factor gene expression levels [2] | effect on FGF2-induced cellular proliferation [3] | effect on FGF2-induced cellular proliferation [4] | effect on VEGF-induced cellular proliferation [5] | effect on VEGF-induced cellular proliferation [6] | modulation of VEGF gene expression levels (VEGF gene expression)
CCN(CC)CCNC(=O)c1c(C)[nH]c(/C=C2\C(=O)Nc3ccc(F)cc32)c1C [sunitinib, reference compound] | ~10 | – | – | – | – | – | –
bevacizumab [reference compound] | – | did not | did not show significant sensitivity | did not show significant sensitivity | did not show significant sensitivity | did not show significant sensitivity | modulated VEGF gene expression levels
